Patent US12180307B2, “Interleukin-13 binding cyclic oligopeptides and methods of use thereof” (B.A.I. LABORATORIES, LLC, priority 2022, dated 2024)
Where “and” joins values, the source holds several entries; their conditions need not be identical. Identical values can stand only once. Square brackets hold non-standard residues; d marks the D form. Peptide text beside a SMILES is read from it.

What was measured:
Human IL-13 = Human IL-13 (Homo sapiens, UniProt P35225); experiment: Surface plasmon resonance (SPR) binding assay, BIAcore 8K plus, immobilized Fc-tagged IL-13; details: 25° C., human IL-13 with Fc-tag immobilized on CM5 chip, read-out: Binding Affinity (KD) for IL-13
Experimental: A SPR assay was conducted to determine the binding affinity of the cyclic oligopeptides generated in Example 1 for IL-13 using a BIAcore 8K plus instrument (GE Healthcare). Human IL-13 with an Fc-tag was immobilized onto the surfaces of Series S Sensor CM5 (GE Healthcare) chips in the range of 5000 resonance units (RU). The binding kinetics were performed at 25° C. with a flow rate of 30 μL/min. The cyclic oligopeptides were analyzed in running buffer comprising 20 mM PBS, 2.7 mM KCl, […], 0.0500 Surfactant P20, pH 7.4, 1% DMSO, starting at 100 μM with gradient of ten two-fold dilutions using solvent correction mode.
FIGS. 2C, 3C, 4C, 5C, 6C, 7C, 8C, 9C, 10C, 11C, and 12C provide SPR response curves for the cyclic oligopeptides generated in Example 1, wherein the x-axis represents time of reaction and y-axis represents altitude of response (Response Units).

[1] = Skin permeability, Franz Cell diffusion cell with artificial skin, Transdermal Diffusion Tester, BCA assay; type: in vitro ADME; details: for Average Permeation Rate After 24 Hours (%) / Average Permeation Rate After 1 Hour (%): 32° C., 1.0 mg/mL in PBS; for Papp at 1 h, 1 mg/mL / Average Permeation Rate After 1 Hour (%): after 1 hour; for Papp at 1 h, 1 mg/mL: read-out: Average Permeability Coefficient (Kp) After 1 hour (converted)
Experimental: As used herein, the term “skin permeation rate” of a cyclic oligopeptide is measured using artificial skin (Start M, Merck), and refers to the percentage of the cyclic oligopeptide that penetrate the artificial skin after certain amount of time. For example, if 60% of the total amount of a cyclic oligopeptide of this disclosure has penetrated the artificial skin after 24 hours, then the skin permeation rate of the cyclic oligopeptide is 60% after 24 hours.
As used herein, the term “skin permeability coefficient (Kp)” refers to the rate at which the cyclic oligopeptide penetrates the skin, as measured using artificial skin (Start M, Merck). In some embodiments, permeability coefficient (Kp)(cm/hr) is calculated with the following equation:
[formula] wherein Q(mg) refers to the total amount of cyclic oligopeptide that pass through the artificial skin within a certain amount of time; A(cm^2) refers to the internal cross-section area of the artificial skin in a diffusion cell; T(hr) refers to the total amount of time of cyclic oligopeptide permeation; and ΔC(mg/mL) refers to the concentration difference of the cyclic oligopeptide between the two sides of the artificial skin. In some embodiments, the diffusion cell is a Franz Cell.
Skin permeability of the cyclic oligopeptides generated in Example 1 was measured using Transdermal Diffusion Tester (TK-12D, Shanghai Kai Kai Industrial Co Ltd) and artificial skin (Start M, Merck). Three parallel experimental groups were set up for each sample. The skin permeability of cyclic oligopeptides was evaluated by the following steps: • 1) 2.0 mg cyclic oligopeptide was weighed and dissolved in 100 μL DMSO. Three parallel experimental groups were set up for each cyclic oligopeptide. The cyclic oligopeptide-containing solution was then slowly added dropwise to 1900 μL 1×PBS solution and mixed evenly to prepare a PBS solution with a final concentration of 1.0 mg/mL cyclic polypeptide. • 2) A magnetron was inserted into a Franz Cell diffusion cell, and an artificial skin was sandwiched in the middle of the diffusion cell with the smooth side of the artificial skin facing up. The diffusion cell was then fixed with clamps after assembly. • 3) 7.75 ml 1×PBS solution were then added to the diffusion cell without generating bubbles in the diffusion cell. The sampling port of the diffusion cell was then sealed with parafilm to reduce evaporation. • 4) The temperature of a Transdermal Diffusion Tester was then set to 32° C., and the magneton speed was set to 180 r/min. • 5) The assembled diffusion cell was then put into the Transdermal Diffusion Tester and preheated for 5-10 mins. • 6) 400 μL of 1.0 mg/mL cyclic oligopeptide solution prepared in step 1) was then added to the upper chamber of the diffusion cell, making it evenly dispersed on the surface of the artificial skin without air bubbles. The top port of the diffusion cell was then covered with parafilm to reduce evaporation. • 7) Starting from the time of adding the cyclic oligopeptide solution, samples of about 0.5 mL of the receiving solution were taken at six time points, 1 h, 2 h, 4 h, 8 h, 12 h and 24 h, using a plastic dropper to take out the samples from the sampling port of the diffusion cell. 0.5 mL of 1×PBS solution was added into the diffusion cell to restore the initial volume of the receiving solution. When sampling, the diffusion cell was tilted appropriately to avoid the generation of bubbles. The samples were then numbered and store at −20° C. • 8) A BCA Assay (Micro BCA Protein Assay Kit, Thermo Scientific) was conducted to measure the concentration of cyclic oligopeptide in samples obtained in step 7) (Actual Concentration of the cyclic oligopeptide at the particular time point). Three parallel groups were used. The weight of cyclic oligopeptide in each sample obtained in step 7) equals to Actual Concentration×0.5 mL. • 9) Permeation rate of each cyclic oligopeptide at each time point was calculated according to the following equation: […]

FIG. 8D = experiment: FIG. 8D
Experimental: Table printed on a drawing sheet, FIG. 8D
The patent's description of the figure: FIG. 8A provides the MS spectrum for Compound 7. FIG. 8B provides the HPLC chromatogram for Compound 7. FIG. 8C provides SPR assay curves showing the binding affinity of Compound 7 for IL-13, the x-axis represents time of reaction and y-axis represents altitude of response (Response Units). FIG. 8D illustrates skin permeation rate of Compound 7 for up to 24 hours. FIG. 8E illustrates average permeability coefficient (Kp) of Compound 7 for 1, 2, 4, 8, 12 and 24 hours.
First reader's note: The substance name Compound 7 comes from the legend of the plot printed above the table; the values are skin permeation over time in three replicates with their average and range.

FIG. 9D = experiment: FIG. 9D
Experimental: Table printed on a drawing sheet, FIG. 9D
The patent's description of the figure: FIG. 9A provides the MS spectrum for Compound 8. FIG. 9B provides the HPLC chromatogram for Compound 8. FIG. 9C provides SPR assay curves showing the binding affinity of Compound 8 for IL-13, the x-axis represents time of reaction and y-axis represents altitude of response (Response Units). FIG. 9D illustrates skin permeation rate of Compound 8 for up to 24 hours. FIG. 9E illustrates average permeability coefficient (Kp) of Compound 8 for 1, 2, 4, 8, 12 and 24 hours.
First reader's note: The substance name is taken from the legend of the plot printed above the table in the same figure; the values are three replicate permeation rates, their average and their range.

FIG. 10D = experiment: FIG. 10D
Experimental: Table printed on a drawing sheet, FIG. 10D
The patent's description of the figure: FIG. 10A provides the MS spectrum for Compound 9. FIG. 10B provides the HPLC chromatogram for Compound 9. FIG. 10C provides SPR assay curves showing the binding affinity of Compound 9 for IL-13, the x-axis represents time of reaction and y-axis represents altitude of response (Response Units). FIG. 10D illustrates skin permeation rate of Compound 9 for up to 24 hours. FIG. 10E illustrates average permeability coefficient (Kp) of Compound 9 for 1, 2, 4, 8, 12 and 24 hours.
First reader's note: The substance name is taken from the legend of the plot printed above the table; three replicate permeation values, their average and their range per time point.

FIG. 11D = experiment: FIG. 11D
Experimental: Table printed on a drawing sheet, FIG. 11D
The patent's description of the figure: FIG. 11A provides the MS spectrum for Compound 10. FIG. 11B provides the HPLC chromatogram for Compound 10. FIG. 11C provides SPR assay curves showing the binding affinity of Compound 10 for IL-13, the x-axis represents time of reaction and y-axis represents altitude of response (Response Units). FIG. 11D illustrates skin permeation rate of Compound 10 for up to 24 hours. FIG. 11E illustrates average permeability coefficient (Kp) of Compound 10 for 1, 2, 4, 8, 12 and 24 hours.
First reader's note: The substance name comes from the legend of the plot above the table; columns 2-4 are three replicate permeation measurements, followed by their average and range.

FIG. 12D = experiment: FIG. 12D
Experimental: Table printed on a drawing sheet, FIG. 12D
The patent's description of the figure: FIG. 12A provides the MS spectrum for Compound 11. FIG. 12B provides the HPLC chromatogram for Compound 11. FIG. 12C provides SPR assay curves showing the binding affinity of Compound 11 for IL-13, the x-axis represents time of reaction and y-axis represents altitude of response (Response Units). FIG. 12D illustrates skin permeation rate of Compound 11 for up to 24 hours. FIG. 12E illustrates average permeability coefficient (Kp) of Compound 11 for 1, 2, 4, 8, 12 and 24 hours.
First reader's note: The substance name is taken from the legend of the plot printed above the table on the same sheet; the last column is the range (max minus min) of the three replicates.

Human IL-13, sequence (P35225 25-146): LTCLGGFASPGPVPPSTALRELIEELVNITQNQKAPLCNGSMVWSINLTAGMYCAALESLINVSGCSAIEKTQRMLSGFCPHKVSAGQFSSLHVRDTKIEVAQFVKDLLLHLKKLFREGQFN

Structure (SMILES)	Kd (Human IL-13)	Papp at 1 h, 1 mg/mL [1]	Permeation Avg. (%) (FIG. 9D)	Average Permeation Rate After 1 Hour (%) [1]	Papp at 24 h, 1 mg/mL ([1]; after 24 hours, read-out: Average Permeability Coefficient (Kp) After 24 hours)	Permeation Avg. (%) (FIG. 10D)	Permeation Avg. (%) (FIG. 11D)	Permeation Avg. (%) (FIG. 12D)	Average Permeation Rate After 24 Hours (%) ([1]; after 24 hours)	Permeation Avg. (%) (FIG. 8D)
CC(C)C[C@H]1NC(=O)[C@@H]2CCCN2C(=O)[C@@H](Cc2ccccc2)NC(=O)[C@H](CCCNC(=N)N)NC(=O)[C@H]([C@@H](C)O)NC(=O)[C@H]2CCCN2C1=O [Compound 7, Thr Arg D-Phe Pro D-Leu D-Pro] (cyclo(P[dL][dP]TR[dF]))	85.1 µM	15.2 ×10⁻⁶ cm/s							38.84%	28.31% and 31.36% and 33.66% and 36.74%
CC(C)C[C@@H]1NC(=O)[C@@H](C(C)C)NC(=O)[C@@H](Cc2c[nH]c3ccccc23)NC(=O)[C@@H](CC(C)C)NC(=O)[C@@H]2CCCN2C(=O)[C@H](C(C)C)NC(=O)[C@@H]2CCCN2C(=O)[C@H](CCCNC(=N)N)NC1=O [Compound 11, Val Pro D-Leu D-Trp D-Val Leu Arg Pro] (cyclo(LRPVP[dL][dW][dV]))	622 µM	7.22 ×10⁻⁶ cm/s		11.77%				15.61% and 19.18% and 21.74% and 23.90%		

Now from value to molecule, other results behind:

Kd (Human IL-13)	Papp at 1 h, 1 mg/mL [1]	Permeation Avg. (%) (FIG. 9D)	Average Permeation Rate After 1 Hour (%) [1]	Papp at 24 h, 1 mg/mL ([1]; after 24 hours, read-out: Average Permeability Coefficient (Kp) After 24 hours)	Permeation Avg. (%) (FIG. 10D)	Permeation Avg. (%) (FIG. 11D)	Permeation Avg. (%) (FIG. 12D)	Structure (SMILES)	Average Permeation Rate After 24 Hours (%) ([1]; after 24 hours)	Permeation Avg. (%) (FIG. 8D)
	7.39 ×10⁻⁶ cm/s	17.57% and 23.24% and 27.76% and 32.33%	12.44%	> 0.0278 ×10⁻⁶ cm/s				CSCC[C@@H]1NC(=O)[C@H](Cc2c[nH]c3ccccc23)NC(=O)[C@@H]2CCCN2C(=O)[C@H](CCC(=O)O)NC(=O)[C@H](CCCNC(=N)N)NC(=O)[C@@H](CC(C)C)NC(=O)[C@@H]2CCCN2C1=O [Compound 8, D-Leu Arg Glu Pro Trp Met Pro] (cyclo(EPWMP[dL]R))	35.20%	
337 µM	14 ×10⁻⁶ cm/s				31.10% and 41.93% and 48.23% and 55.09%			CC(C)C[C@@H]1NC(=O)[C@@H](CCCNC(=N)N)NC(=O)[C@@H]2CCCN2C(=O)[C@H](CCC(=O)O)NC(=O)[C@@H]([C@H](C)O)NC(=O)[C@H](Cc2c[nH]c3ccccc23)NC(=O)[C@@H](Cc2c[nH]c3ccccc23)NC1=O [Compound 9, D-Arg Leu D-Trp Trp D-Thr Glu Pro] (cyclo(EP[dR]L[dW]W[dT]))		
368 µM	11.7 ×10⁻⁶ cm/s		18.96%			29.18% and 39.99% and 47.96% and 56.44%		N=C(N)NCCC[C@@H]1NC(=O)[C@H]2CCCN2C(=O)[C@@H](Cc2c[nH]c3ccccc23)NC(=O)[C@H]2CCCN2C(=O)[C@H](CS)NC(=O)[C@H](Cc2ccc(O)cc2)NC(=O)[C@H](CC(=O)O)NC1=O [Compound 10, Arg Asp Tyr Cys D-Pro D-Trp D-Pro] (cyclo(C[dP][dW][dP]RDY))		
